Measurements as given in the supplement of paper PMC11451515.

Test system: P12-Ichikawa
Assay: cell viability relative to DMSO control; higher = less cytotoxic
Settings: 48 h
How it was run: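 NOMO1 or SEM cells were plated at 500 cells/well and P12-Ichikawa cells at 1000 cells/well in 1536-well plates (5 μl), after each leukemia line had been adapted for at least four passages in each medium. Pin dosing delivered library compounds in DMSO at 11 threefold concentrations, 47 μM to 0.79 nM. CellTiter-Glo One luminescence was read after 48 h at 37°C. Viability is reported as a per-plate percentage of DMSO wells, with cell-free wells as background.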

[1] = HPLM + 10% dialyzed FBS, 0.000781 µM
[2] = HPLM + 10% dialyzed FBS, 0.00234 µM
[3] = HPLM + 10% dialyzed FBS, 0.00702 µM
[4] = HPLM + 10% dialyzed FBS, 0.0211 µM
[5] = HPLM + 10% dialyzed FBS, 0.0632 µM
[6] = HPLM + 10% dialyzed FBS, 0.19 µM
[7] = HPLM + 10% dialyzed FBS, 0.569 µM
[8] = HPLM + 10% dialyzed FBS, 1.71 µM
[9] = HPLM + 10% dialyzed FBS, 5.12 µM
[10] = HPLM + 10% dialyzed FBS, 15.4 µM
[11] = HPLM + 10% dialyzed FBS, 46.1 µM
[12] = RPMI 5 mM glucose + 10% FBS, 0.000781 µM
[13] = RPMI 5 mM glucose + 10% FBS, 0.00234 µM
[14] = RPMI 5 mM glucose + 10% FBS, 0.00702 µM
[15] = RPMI 5 mM glucose + 10% FBS, 0.0211 µM
[16] = RPMI 5 mM glucose + 10% FBS, 0.0632 µM
[17] = RPMI 5 mM glucose + 10% FBS, 0.19 µM
[18] = RPMI 5 mM glucose + 10% FBS, 0.569 µM
[19] = RPMI 5 mM glucose + 10% FBS, 1.71 µM
[20] = RPMI 5 mM glucose + 10% FBS, 5.12 µM
[21] = RPMI 5 mM glucose + 10% FBS, 15.4 µM
[22] = RPMI 5 mM glucose + 10% FBS, 46.1 µM
[23] = RPMI 5 mM glucose + 10% dialyzed FBS, 0.000781 µM
[24] = RPMI 5 mM glucose + 10% dialyzed FBS, 0.00234 µM
[25] = RPMI 5 mM glucose + 10% dialyzed FBS, 0.00702 µM
[26] = RPMI 5 mM glucose + 10% dialyzed FBS, 0.0211 µM
[27] = RPMI 5 mM glucose + 10% dialyzed FBS, 0.0632 µM
[28] = RPMI 5 mM glucose + 10% dialyzed FBS, 0.19 µM
[29] = RPMI 5 mM glucose + 10% dialyzed FBS, 0.569 µM
[30] = RPMI 5 mM glucose + 10% dialyzed FBS, 1.71 µM
[31] = RPMI 5 mM glucose + 10% dialyzed FBS, 5.12 µM
[32] = RPMI 5 mM glucose + 10% dialyzed FBS, 15.4 µM
[33] = RPMI 5 mM glucose + 10% dialyzed FBS, 46.1 µM

SMILES	cell viability [1]	cell viability [2]	cell viability [3]	cell viability [4]	cell viability [5]	cell viability [6]	cell viability [7]	cell viability [8]	cell viability [9]	cell viability [10]	cell viability [11]	cell viability [12]	cell viability [13]	cell viability [14]	cell viability [15]	cell viability [16]	cell viability [17]	cell viability [18]	cell viability [19]	cell viability [20]	cell viability [21]	cell viability [22]	cell viability [23]	cell viability [24]	cell viability [25]	cell viability [26]	cell viability [27]	cell viability [28]	cell viability [29]	cell viability [30]	cell viability [31]	cell viability [32]	cell viability [33]
Cc1[nH]c(/C=C2\C(=O)Nc3ccc([S+](=O)([O-])Cc4c(Cl)cccc4Cl)cc32)c(C)c1C(=O)N1CCC[C@@H]1CN1CCCC1	105%	108%	99.7%	101%	98.8%	111%	108%	97.9%	91.5%	87.4%	78.3%	99.4%	103%	105%	99.7%	94.6%	95.3%	107%	98.4%	81.5%	85.5%	84.4%	98%	95.8%	93.7%	101%	99%	102%	95%	91.6%	69.5%	78.1%	53%
CC(C)(C)c1cc(C(=O)O)c(NC(=O)Nc2ccc3[nH]ncc3c2)s1	93.9%	102%	88.8%	97.4%	91.7%	91.5%	85.9%	89.6%	89.9%	85.5%	80.6%	92.9%	90.5%	92.4%	97.8%	91.4%	98.4%	87.9%	79.6%	88.2%	84.7%	73.1%	93.5%	96.7%	93%	97.8%	97.2%	88.8%	90%	86.2%	87.8%	87.3%	91%
COc1cc([C@@H]2c3cc4c(cc3[C@@H](O[C@@H]3O[C@@H]5CO[C@@H](c6cccs6)O[C@H]5[C@H](O)[C@H]3O)[C@H]3COC(=O)[C@H]23)OCO4)cc(OC)c1O	89.9%	91.6%	92.9%	93%	90.1%	88.2%	83%	9.83%	71.4%	6.48%	6.62%	77.3%	87.9%	89.2%	95.8%	83.3%	80.1%	68%	6.52%	55.9%	5.89%	4.88%	84.4%	91.5%	88.5%	82.3%	82.7%	74.6%	73.7%	8.53%	59%	6.51%	4.64%
COc1cc(N[S+](=O)([O-])c2ccc(N)cc2)nc(OC)n1	114%	111%	116%	112%	125%	115%	112%	109%	110%	110%	107%	102%	106%	109%	110%	107%	110%	110%	110%	105%	95.8%	103%	112%	108%	114%	106%	117%	113%	117%	117%	104%	103%	101%
CN(C)CCCNC(=O)c1ccc(-c2cc(O)c3ncccc3c2)cc1	102%	102%	106%	107%	106%	111%	93.9%	104%	101%	95.2%	82.6%	95.7%	97.4%	101%	104%	111%	89.6%	93.3%	95.5%	92%	99.8%	63.6%	92.3%	97.9%	96.8%	97.5%	103%	95.1%	98.5%	90.6%	83.4%	100%	71.1%
CC[C@@]1(O)C[C@H](O[C@H]2C[C@H](N(C)C)[C@H](O[C@H]3C[C@H](O)[C@H](O[C@H]4CCC(=O)[C@H](C)O4)[C@H](C)O3)[C@H](C)O2)c2c(cc3c(c2O)C(=O)c2c(O)cccc2C3=O)[C@H]1C(=O)OC	94.5%	104%	97%	102%	103%	106%	109%	99.9%	94.5%	85.5%	90.1%	94.7%	96.5%	96.8%	98.7%	102%	99%	97.2%	73.2%	75.7%	63.9%	53.5%	95.5%	91.1%	90.8%	93.5%	94.9%	106%	98.7%	84.2%	78%	76.8%	63.3%
C[S+]([O-])c1ccc(-c2nc(-c3ccc(F)cc3)c(-c3ccncc3)[nH]2)cc1 (centres undefined)	103%	102%	97.3%	111%	109%	108%	107%	93.6%	53.5%	3.78%	1.78%	93.8%	92.2%	103%	99%	102%	92.8%	102%	64.2%	46.6%	3.17%	1.83%	96.6%	103%	99.7%	97.3%	98.7%	99.4%	98.6%	74.2%	45.4%	3.69%	2.1%
CO[C@H]1C[C@@H]2CC[C@@H](C)[C@@](O)(O2)C(=O)C(=O)N2CCCC[C@H]2C(=O)O[C@H]([C@H](C)C[C@@H]2CC[C@@H](OCCO)[C@H](OC)C2)CC(=O)[C@H](C)/C=C(/C)[C@@H](O)[C@@H](OC)C(=O)[C@H](C)C[C@H](C)\C=C/C=C\C=C/1C	101%	109%	104%	94.1%	99.9%	98.9%	96.5%	86.6%	76.7%	44.7%	50.3%	82.5%	94%	89.6%	79.2%	77.8%	77.7%	68.8%	70.6%	51.8%	25.7%	26.1%	90.8%	99.1%	93.7%	84.9%	85.8%	87.1%	80.5%	78.1%	51.4%	33.4%	33.9%
CC(NCc1ccc2c(c1)[nH]/c(=N\C(=O)c1ccc(-c3cn[nH]c3)s1)n2CC(C)(C)O)C(C)(C)C (centres undefined)	117%	112%	108%	115%	117%	111%	99.1%	65%	29.5%	25.9%	2.69%	109%	118%	121%	123%	124%	121%	102%	72.9%	29.8%	14.7%	2.33%	134%	124%	120%	130%	119%	122%	104%	71%	31.7%	24.9%	3.31%
CC(C)(C)NC(=O)[C@H]1CC[C@H]2[C@@H]3CC[C@H]4NC(=O)\C=C/[C@]4(C)[C@H]3CC[C@]12C	101%	109%	106%	107%	102%	103%	111%	107%	109%	27.7%	12.7%	83.5%	104%	103%	108%	109%	109%	109%	115%	103%	31.6%	10.8%	94.1%	100%	102%	100%	107%	112%	108%	115%	113%	81.4%	35.6%
O=C1NC(=O)/C(=C/c2cccc(C(F)(F)F)c2)S1	107%	110%	111%	110%	103%	108%	104%	110%	106%	98%	100%	99.3%	96.4%	99.8%	115%	94.1%	94.8%	98.6%	98.7%	100%	89.4%	82.9%	90.3%	97.4%	91.9%	104%	95.9%	93.1%	94.2%	99.7%	97.4%	90.2%	89.2%
C#C[C@]1(O)CC[C@H]2[C@@H]3CCc4cc(OC)ccc4[C@H]3CC[C@@]21C	118%	104%	111%	106%	110%	98.5%	111%	102%	101%	109%	98.5%	110%	101%	112%	106%	113%	106%	106%	108%	90.7%	111%	97.6%	103%	101%	100%	107%	114%	111%	107%	107%	101%	102%	97.6%
CC(C)NCC(O)COc1ccc(CCOCC2CC2)cc1 (centres undefined)	121%	118%	113%	117%	113%	126%	115%	113%	111%	118%	120%	120%	123%	118%	121%	125%	121%	131%	126%	118%	104%	123%	121%	121%	112%	116%	122%	116%	110%	119%	113%	107%	115%
O=C1NC(O)CCN1[C@@H]1O[C@H](CO)[C@@H](O)[C@H]1O (some centres undefined)	118%	127%	120%	116%	128%	129%	122%	106%	102%	110%	112%	–	–	–	–	–	–	–	–	–	–	–	118%	119%	131%	124%	116%	120%	120%	121%	110%	115%	107%
CN[S+](=O)([O-])CCc1ccc2[nH]cc(C3CCN(C)CC3)c2c1	95.6%	98.2%	99.7%	99.5%	101%	103%	108%	102%	112%	103%	105%	91.6%	91.6%	84.7%	96%	101%	100%	101%	107%	102%	98%	101%	87.8%	94.2%	96.4%	94.4%	99.9%	99%	107%	96.3%	97.4%	101%	98.9%
